Test results reported in BindingDB's records for doi:10.1016/S0960-894X(01)80104-9 (1994).

Assays:
[1] = In vitro thromboxane receptor antagonist against U-46619 induced aggregation of washed human platelets
[2] = biological target: T1, Thromboxane A2 receptor (Homo sapiens, UniProt P21731); test: In vitro thromboxane receptor antagonist against U-46619 induced aggregation of washed human platelets
T1 sequence (P21731 whole entry): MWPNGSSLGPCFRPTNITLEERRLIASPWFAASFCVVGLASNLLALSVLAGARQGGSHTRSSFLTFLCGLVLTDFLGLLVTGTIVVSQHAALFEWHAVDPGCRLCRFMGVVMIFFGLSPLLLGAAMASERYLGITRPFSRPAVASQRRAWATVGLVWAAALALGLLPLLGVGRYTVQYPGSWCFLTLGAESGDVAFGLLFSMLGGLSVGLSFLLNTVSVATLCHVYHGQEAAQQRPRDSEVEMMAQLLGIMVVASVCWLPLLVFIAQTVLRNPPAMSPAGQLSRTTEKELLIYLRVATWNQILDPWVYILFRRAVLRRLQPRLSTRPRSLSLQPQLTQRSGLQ

Row | Compound | IC50 [1] | IC50 [2]
1 | O=C(O)CCCCO/N=C(/c1cccnc1)c1cccc(C(F)(F)F)c1 [5-[Pyridin-3-yl-(3-trifluoromethyl-phenyl)-methyleneaminooxy]-pentanoic acid] | 1280 nM | –
2 | O=C(O)CC/C=C\CC[C@@H]1[C@@H](c2cccnc2)OC[C@H]1OCc1ccc(-c2ccccc2)cc1 [(Z)-7-[(2S,3R,4S)-4-(Biphenyl-4-ylmethoxy)-2-pyridin-3-yl-tetrahydro-furan-3-yl]-hept-4-enoic acid] | 88 nM | –
3 | O=C(O)CC/C=C\CC[C@H]1[C@H](OCc2ccc(-c3ccccc3)cc2)CO[C@H]1c1cccnc1 [(Z)-7-[(2R,3R,4S)-4-(Biphenyl-4-ylmethoxy)-2-pyridin-3-yl-tetrahydro-furan-3-yl]-hept-4-enoic acid] | 820 nM | –

Results, then the compound that gave them:

Row | IC50 [1] | IC50 [2] | Compound
4 | 795 nM | – | O=C(O)CC/C=C\CC[C@H]1[C@@H](OCc2ccc(-c3ccccc3)cc2)CO[C@H]1c1cccnc1 [(Z)-7-[(2R,3R,4R)-4-(Biphenyl-4-ylmethoxy)-2-pyridin-3-yl-tetrahydro-furan-3-yl]-hept-4-enoic acid]
5 | 27 nM | 28 nM | O=C(O)CC/C=C\CC[C@H]1[C@@H](OCc2ccc(-c3ccccc3)cc2)CO[C@@H]1c1cccnc1 [(Z)-7-[(2S,3R,4R)-4-(Biphenyl-4-ylmethoxy)-2-pyridin-3-yl-tetrahydro-furan-3-yl]-hept-4-enoic acid]
